According to ChEMBL document CHEMBL1201862, “PubChem BioAssay data set” (2004):
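1) Cells in 96-well plates. 2) Compound, 48 h, 5 concentrations. 3) Linear interpolation between surrounding doses. 4) Unreached endpoint = highest concentration. GI50: concentration for 50% inhibition of growth.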 Active and inactive are the calls of the source. No stated cut-off is given here; in the data, active = GI50 up to about 1.1 µM and inactive = higher.

Assays:
Assay in all cases: NCI tumour cell line growth inhibition, 48 h
LOX IMVI = tested on: LOX IMVI
CCRF-CEM = tested on: CCRF-CEM
DU-145 = tested on: DU-145
SW-620 = tested on: SW-620
SK-MEL-5 = tested on: SK-MEL-5
SNB-19 = tested on: SNB-19
SN12C = tested on: SN12C
SF-539 = tested on: SF-539
K562 = tested on: K562
HOP-62 = tested on: HOP-62
EKVX = tested on: EKVX
UACC-62 = tested on: UACC-62
NCI-H23 = tested on: NCI-H23
HCT-15 = tested on: HCT-15
Malme-3M = tested on: Malme-3M
KM12 = tested on: KM12
NCI-H522 = tested on: NCI-H522
M14 = tested on: M14
ACHN = tested on: ACHN
OVCAR-3 = tested on: OVCAR-3

O=C(/C=C/c1ccc(Oc2cc(C(=O)/C=C/c3ccc(O)cc3)c(O)cc2O)cc1)c1ccc(O)cc1O [RHUSCHALCONE II]
GI50 (LOX IMVI): 5.47 µM (inactive)
GI50 (CCRF-CEM): 2.51 µM (inactive)
GI50 (DU-145): 3.38 µM (inactive)
GI50 (SW-620): 4.82 µM (inactive)
GI50 (SK-MEL-5): 4.4 µM (inactive)
GI50 (SNB-19): 6.89 µM (inactive)
GI50 (SN12C): 4.41 µM (inactive)
GI50 (SF-539): 2.43 µM (inactive)
GI50 (K562): 3.47 µM (inactive)
GI50 (HOP-62): 5.38 µM (inactive)
GI50 (EKVX): 13.2 µM (inactive)
GI50 (UACC-62): 4.62 µM (inactive)
GI50 (NCI-H23): 6.19 µM (inactive)
GI50 (HCT-15): 5.97 µM
GI50 (Malme-3M): 10.6 µM (inactive)
GI50 (KM12): 2.15 µM (inactive)
GI50 (NCI-H522): 4.82 µM (inactive)
GI50 (M14): 10.3 µM (inactive)
GI50 (ACHN): 9.29 µM (inactive)
GI50 (OVCAR-3): 3.42 µM (inactive)

COC1(OC)C=CC(=O)C=C1
GI50 (LOX IMVI): 0.667 µM (active)
GI50 (CCRF-CEM): 0.446 µM (active)
GI50 (DU-145): 3.48 µM (inactive)
GI50 (SW-620): 1.45 µM (inactive)
GI50 (SK-MEL-5): 2.8 µM (inactive)
GI50 (SNB-19): 15.7 µM (inactive)
GI50 (SN12C): 7.48 µM (inactive)
GI50 (SF-539): 1.74 µM (inactive)
GI50 (K562): 2.2 µM (inactive)
GI50 (HOP-62): 10.6 µM (inactive)
GI50 (EKVX): 6.78 µM (inactive)
GI50 (UACC-62): 1.82 µM (inactive)
GI50 (NCI-H23): 2.66 µM (inactive)
GI50 (HCT-15): 4.17 µM
GI50 (Malme-3M): < 0.01 µM (active)
GI50 (KM12): 7.52 µM (inactive)
GI50 (NCI-H522): 0.149 µM (active)
GI50 (M14): 3.3 µM (inactive)
GI50 (ACHN): 2.54 µM (inactive)
GI50 (OVCAR-3): 4.2 µM (inactive)

COc1cc(C2S/C(=C/c3ccccc3)C(=O)N2c2cc(Cl)c(Cl)cc2Cl)cc(OC)c1OC (stereo not given)
GI50 (LOX IMVI): 24.2 µM (inactive)
GI50 (CCRF-CEM): 21.5 µM (inactive)
GI50 (DU-145): 30.2 µM (inactive)
GI50 (SW-620): 47.6 µM (inactive)
GI50 (SK-MEL-5): 22.5 µM (inactive)
GI50 (SNB-19): > 63.1 µM (inactive)
GI50 (SN12C): > 59.8 µM (inactive)
GI50 (SF-539): 25.6 µM (inactive)
GI50 (K562): 29 µM (inactive)
GI50 (HOP-62): 28.4 µM (inactive)
GI50 (EKVX): 9.66 µM (inactive)
GI50 (UACC-62): 27.5 µM (inactive)
GI50 (NCI-H23): 43.2 µM (inactive)
GI50 (HCT-15): 28.7 µM
GI50 (Malme-3M): 26.2 µM (inactive)
GI50 (KM12): 25.7 µM (inactive)
GI50 (NCI-H522): 16.9 µM (inactive)
GI50 (M14): 37.5 µM (inactive)
GI50 (ACHN): 35.6 µM (inactive)
GI50 (OVCAR-3): 24.2 µM (inactive)

N=C(N)NCCNC(=N)N
GI50 (LOX IMVI): > 100 µM (inactive)
GI50 (CCRF-CEM): > 100 µM (inactive)
GI50 (DU-145): > 100 µM (inactive)
GI50 (SW-620): > 100 µM (inactive)
GI50 (SK-MEL-5): > 100 µM (inactive)
GI50 (SNB-19): > 100 µM (inactive)
GI50 (SN12C): 85.1 µM (inactive)
GI50 (SF-539): > 100 µM (inactive)
GI50 (K562): > 100 µM (inactive)
GI50 (HOP-62): > 100 µM (inactive)
GI50 (EKVX): > 100 µM (inactive)
GI50 (UACC-62): > 100 µM (inactive)
GI50 (NCI-H23): > 100 µM (inactive)
GI50 (HCT-15): > 100 µM
GI50 (Malme-3M): 37.5 µM (inactive)
GI50 (KM12): > 100 µM (inactive)
GI50 (NCI-H522): > 100 µM (inactive)
GI50 (M14): > 100 µM (inactive)
GI50 (ACHN): > 100 µM (inactive)
GI50 (OVCAR-3): > 100 µM (inactive)

O=C(CSc1nc2ccccc2c(=O)n1-c1ccccc1)N/N=C1\C(=O)Nc2ccc(Br)cc21
GI50 (LOX IMVI): 3.33 µM (inactive)
GI50 (CCRF-CEM): 5.62 µM (inactive)
GI50 (DU-145): 2.13 µM (inactive)
GI50 (SW-620): 3.37 µM (inactive)
GI50 (SK-MEL-5): 2.58 µM (inactive)
GI50 (SNB-19): 3.03 µM (inactive)
GI50 (SN12C): 1.71 µM (inactive)
GI50 (SF-539): 2.1 µM (inactive)
GI50 (K562): 3.2 µM (inactive)
GI50 (HOP-62): 2.59 µM (inactive)
GI50 (EKVX): 2.74 µM (inactive)
GI50 (UACC-62): 4.44 µM (inactive)
GI50 (NCI-H23): 3.42 µM (inactive)
GI50 (HCT-15): 4.39 µM
GI50 (Malme-3M): 2.26 µM (inactive)
GI50 (KM12): 2.44 µM (inactive)
GI50 (NCI-H522): 3.4 µM (inactive)
GI50 (M14): 2.4 µM (inactive)
GI50 (ACHN): 4.57 µM (inactive)
GI50 (OVCAR-3): 3.1 µM (inactive)

Cc1cccc(CP(Cc2cccc(C)c2)CC2(Cp3c4ccccc4c4ccccc43)COC2)c1
GI50 (LOX IMVI): 1.42 µM (inactive)
GI50 (CCRF-CEM): 0.406 µM (active)
GI50 (DU-145): 4.71 µM (inactive)
GI50 (SW-620): 10.3 µM (inactive)
GI50 (SK-MEL-5): 2.55 µM (inactive)
GI50 (SNB-19): 5.96 µM (inactive)
GI50 (SN12C): 4.41 µM (inactive)
GI50 (SF-539): 12.1 µM (inactive)
GI50 (K562): 1.33 µM (inactive)
GI50 (HOP-62): 66.7 µM (inactive)
GI50 (EKVX): 14.1 µM (inactive)
GI50 (UACC-62): 11.7 µM (inactive)
GI50 (NCI-H23): 11.5 µM (inactive)
GI50 (HCT-15): 31 µM
GI50 (Malme-3M): 5.13 µM (inactive)
GI50 (KM12): 2.51 µM (inactive)
GI50 (NCI-H522): 1.18 µM (inactive)
GI50 (M14): 3.97 µM (inactive)
GI50 (ACHN): 4.71 µM (inactive)
GI50 (OVCAR-3): 8.43 µM (inactive)

CCN(CC)CCCNc1ccc2nc(C)n3c4ccc(O)cc4c(=O)c1c23
GI50 (LOX IMVI): 1.14 µM (inactive)
GI50 (CCRF-CEM): 1.79 µM (inactive)
GI50 (DU-145): 5.46 µM (inactive)
GI50 (SW-620): 0.957 µM (active)
GI50 (SK-MEL-5): 10.3 µM (inactive)
GI50 (SNB-19): 6.7 µM (inactive)
GI50 (SN12C): 5.15 µM (inactive)
GI50 (SF-539): 9.38 µM (inactive)
GI50 (K562): 2.97 µM (inactive)
GI50 (HOP-62): 3.21 µM (inactive)
GI50 (EKVX): 11.4 µM (inactive)
GI50 (UACC-62): 10 µM (inactive)
GI50 (NCI-H23): 1.34 µM (inactive)
GI50 (HCT-15): 3.62 µM
GI50 (Malme-3M): 10.7 µM (inactive)
GI50 (KM12): 3.61 µM (inactive)
GI50 (NCI-H522): 0.485 µM (active)
GI50 (M14): 8.61 µM (inactive)
GI50 (ACHN): 3.01 µM (inactive)
GI50 (OVCAR-3): 8.09 µM (inactive)

Cc1nn2c(C(=O)N/N=C/c3ccccc3O)c(C)nc2s1
GI50 (LOX IMVI): > 100 µM (inactive)
GI50 (CCRF-CEM): 41.2 µM (inactive)
GI50 (DU-145): > 100 µM (inactive)
GI50 (SW-620): > 100 µM (inactive)
GI50 (SK-MEL-5): 60.3 µM (inactive)
GI50 (SNB-19): > 100 µM (inactive)
GI50 (SN12C): 73.1 µM (inactive)
GI50 (SF-539): > 100 µM (inactive)
GI50 (K562): > 100 µM (inactive)
GI50 (HOP-62): > 100 µM (inactive)
GI50 (EKVX): > 100 µM (inactive)
GI50 (UACC-62): > 100 µM (inactive)
GI50 (NCI-H23): > 100 µM (inactive)
GI50 (HCT-15): 41.9 µM
GI50 (Malme-3M): > 100 µM (inactive)
GI50 (KM12): > 100 µM (inactive)
GI50 (NCI-H522): > 100 µM (inactive)
GI50 (M14): 53 µM (inactive)
GI50 (ACHN): 56.1 µM (inactive)
GI50 (OVCAR-3): 3.09 µM (inactive)

COc1ccc(C(SC2C(O)C(CO)OC2n2ccc(=O)[nH]c2=O)(c2ccccc2)c2ccc(OC)cc2)cc1 (stereo not given)
GI50 (LOX IMVI): 16.9 µM (inactive)
GI50 (CCRF-CEM): 23.8 µM (inactive)
GI50 (DU-145): 18.4 µM (inactive)
GI50 (SW-620): 22.2 µM (inactive)
GI50 (SK-MEL-5): 14.7 µM (inactive)
GI50 (SNB-19): 12.4 µM (inactive)
GI50 (SN12C): 14.4 µM (inactive)
GI50 (SF-539): 22 µM (inactive)
GI50 (K562): 31.6 µM (inactive)
GI50 (HOP-62): 17.9 µM (inactive)
GI50 (EKVX): 17.1 µM (inactive)
GI50 (UACC-62): 15.9 µM (inactive)
GI50 (NCI-H23): 17.7 µM (inactive)
GI50 (HCT-15): 15.5 µM
GI50 (Malme-3M): 20.7 µM (inactive)
GI50 (KM12): 15.8 µM (inactive)
GI50 (NCI-H522): 14.7 µM (inactive)
GI50 (M14): 11.3 µM (inactive)
GI50 (ACHN): 29 µM (inactive)
GI50 (OVCAR-3): 17.6 µM (inactive)

Cc1ccc(NC(=O)c2cccc(OP(=O)(O)Nc3ccc(C)cc3)c2)cc1
GI50 (LOX IMVI): > 100 µM (inactive)
GI50 (CCRF-CEM): > 100 µM (inactive)
GI50 (DU-145): > 100 µM (inactive)
GI50 (SW-620): > 100 µM (inactive)
GI50 (SK-MEL-5): > 100 µM (inactive)
GI50 (SNB-19): > 100 µM (inactive)
GI50 (SN12C): > 100 µM (inactive)
GI50 (SF-539): > 100 µM (inactive)
GI50 (K562): > 100 µM (inactive)
GI50 (HOP-62): > 100 µM (inactive)
GI50 (EKVX): > 100 µM (inactive)
GI50 (UACC-62): > 100 µM (inactive)
GI50 (NCI-H23): > 100 µM (inactive)
GI50 (HCT-15): > 100 µM
GI50 (Malme-3M): > 100 µM (inactive)
GI50 (KM12): > 100 µM (inactive)
GI50 (NCI-H522): 18.7 µM (inactive)
GI50 (M14): 33.3 µM (inactive)
GI50 (ACHN): 57.4 µM (inactive)
GI50 (OVCAR-3): > 100 µM (inactive)
